Values after ≈ are worked out from the molar mass of the structure shown.
Tests used:
Assay type in all cases: functional
Staphylococcus aureus [1] = assay: Antibacterial activity against Staphylococcus aureus ATCC 9144 assessed as inhibition of visible bacterial growth incubated for 18 hrs by CLSI protocol based assay
[2] = tested on: Staphylococcus epidermidis; assay: Antibacterial activity against Staphylococcus epidermidis ATCC 12228 assessed as inhibition of visible bacterial growth incubated for 18 hrs by CLSI protocol based assay
Bacillus cereus = assay: Antibacterial activity against Bacillus cereus ATCC 11778 assessed as inhibition of visible bacterial growth incubated for 18 hrs by CLSI protocol based assay
Bacillus subtilis = assay: Antibacterial activity against Bacillus subtilis ATCC 6633 assessed as inhibition of visible bacterial growth incubated for 18 hrs by CLSI protocol based assay
Micrococcus luteus = assay: Antibacterial activity against Micrococcus luteus ATCC 9341 assessed as inhibition of visible bacterial growth incubated for 18 hrs by CLSI protocol based assay
Listeria monocytogenes = assay: Antibacterial activity against Listeria monocytogenes ATCC19111 assessed as inhibition of visible bacterial growth incubated for 18 hrs by CLSI protocol based assay
[3] = tested on: Mycolicibacterium smegmatis; assay: Antibacterial activity against Mycobacterium smegmatis ATCC 607 assessed as inhibition of visible bacterial growth incubated for 48 hrs by CLSI protocol based assay
Staphylococcus aureus [4] = assay: Antibacterial activity against methicillin-resistant Staphylococcus aureus clinical isolate 3B assessed as inhibition of visible bacterial growth incubated for 18 hrs by CLSI protocol based assay
Staphylococcus aureus [5] = assay: Antibacterial activity against methicillin-resistant Staphylococcus aureus clinical isolate 6B assessed as inhibition of visible bacterial growth incubated for 18 hrs by CLSI protocol based assay
Staphylococcus aureus [6] = assay: Antibacterial activity against methicillin-resistant Staphylococcus aureus clinical isolate 10B assessed as inhibition of visible bacterial growth incubated for 18 hrs by CLSI protocol based assay
Pseudomonas aeruginosa = assay: Antibacterial activity against Pseudomonas aeruginosa ATCC 9027 assessed as inhibition of visible bacterial growth incubated for 18 hrs by CLSI protocol based assay
Staphylococcus aureus [7] = assay: Antibacterial activity against methicillin-resistant Staphylococcus aureus clinical isolate 9B assessed as inhibition of visible bacterial growth incubated for 18 hrs by CLSI protocol based assay
Escherichia coli = assay: Antibacterial activity against Escherichia coli ATCC 8739 assessed as inhibition of visible bacterial growth incubated for 18 hrs by CLSI protocol based assay

SMILES | MIC (Staphylococcus aureus [1]) [µg/mL] | MIC [2] [µg/mL] | MIC (Bacillus cereus) [µg/mL] | MIC (Bacillus subtilis) [µg/mL] | MIC (Micrococcus luteus) [µg/mL] | MIC (Listeria monocytogenes) [µg/mL] | MIC [3] [µg/mL] | MIC (Staphylococcus aureus [4]) [µg/mL] | MIC (Staphylococcus aureus [5]) [µg/mL] | MIC (Staphylococcus aureus [6]) [µg/mL] | MIC (Pseudomonas aeruginosa) [µg/mL] | MIC (Staphylococcus aureus [7]) [µg/mL] | MIC (Escherichia coli) [µg/mL]
CC1(C)S[C@@H]2[C@H](NC(=O)[C@H](N)c3ccccc3)C(=O)N2[C@H]1C(=O)O [AMPICILLIN] | 0.03 (≈ 0.0859 µM) | 1 (≈ 2.86 µM) | 16 (≈ 45.8 µM) | 0.03 (≈ 0.0859 µM) | 0.03 (≈ 0.0859 µM) | 0.03 (≈ 0.0859 µM) | 64 (≈ 183 µM) | 8 (≈ 22.9 µM) | 8 (≈ 22.9 µM) | 4 (≈ 11.4 µM) | 2 (≈ 5.72 µM) | – | –
C[C@H]1O[C@@H]2C3=C(O[C@]2(C)[C@@]1(O)C=O)C(=O)c1c(O)cccc1C3=O | 8 (≈ 24.2 µM) | 8 (≈ 24.2 µM) | 16 (≈ 48.4 µM) | 16 (≈ 48.4 µM) | 32 (≈ 96.9 µM) | 8 (≈ 24.2 µM) | 64 (≈ 194 µM) | 16 (≈ 48.4 µM) | 8 (≈ 24.2 µM) | 8 (≈ 24.2 µM) | > 128 | 16 (≈ 48.4 µM) | > 128
NC[C@H]1O[C@H](O[C@H]2[C@H](O)[C@@H](O[C@H]3O[C@H](CO)[C@@H](O)[C@H](N)[C@H]3O)[C@H](N)C[C@@H]2N)[C@H](O)[C@@H](O)[C@@H]1O [KANAMYCIN] | 8 (≈ 16.5 µM) | 1 (≈ 2.06 µM) | 2 (≈ 4.13 µM) | 0.5 (≈ 1.03 µM) | 8 (≈ 16.5 µM) | 1 (≈ 2.06 µM) | 0.25 (≈ 0.516 µM) | > 128 | > 128 | > 128 | 8 (≈ 16.5 µM) | 128 (≈ 264 µM) | 8 (≈ 16.5 µM)
CC(C)Cc1nc([C@H](C)C(=O)O)c(C(C)C)n(O)c1=O | 128 (≈ 453 µM) | 64 (≈ 227 µM) | 128 (≈ 453 µM) | 128 (≈ 453 µM) | 64 (≈ 227 µM) | 128 (≈ 453 µM) | > 128 | 128 (≈ 453 µM) | 128 (≈ 453 µM) | 128 (≈ 453 µM) | > 128 | 128 (≈ 453 µM) | > 128
C[C@H]1O[C@]12[C@@H](O)O[C@H]1[C@]2(C)O[C@]2(O)C(=O)c3c(O)cccc3C(=O)[C@@]12O | 128 (≈ 351 µM) | 64 (≈ 176 µM) | > 128 | > 128 | > 128 | 128 (≈ 351 µM) | > 128 | > 128 | > 128 | 128 (≈ 351 µM) | > 128 | > 128 | > 128
C[C@H]1O[C@@H]2O[C@@H]3C4C(=O)c5cccc(O)c5C(=O)C4O[C@]3(C)[C@@]21O (stereo partly specified) | 2 (≈ 6.02 µM) | 2 (≈ 6.02 µM) | 8 (≈ 24.1 µM) | 4 (≈ 12 µM) | 8 (≈ 24.1 µM) | 2 (≈ 6.02 µM) | 64 (≈ 193 µM) | 4 (≈ 12 µM) | 4 (≈ 12 µM) | 4 (≈ 12 µM) | > 128 | 4 (≈ 12 µM) | > 128

From ChEMBL document CHEMBL5120847, “Enceleamycins A-C, Furo-Naphthoquinones from Amycolatopsis sp. MCC0218: Isolation, Structure Elucidation, and Antimicrobial Activity” (2022)
